From patent publication US20150126507A1, “COMPOUNDS TO TREAT HEARING LOSS” (Fate Therapeutics, Inc., priority 2013, published 2015) come the findings set out here.

“Also recorded” adds a separate entry of the source.

Common to all, as to type: cell-based
The test system of data set [1] is Atoh1 enhancer reporter in HEK293 cells. As to the kind of experiment: Atoh1 reporter cell line, firefly luciferase normalized to renilla luciferase. To be noted: Homo sapiens, HEK293, 48 h, Atoh1 reporter HEK293 cells, treated 2 days, dose response; read-out: ED50 (the source's name). The protocol: FIG. 2. Dose response data for selected hits. Atoh1 reporter cells plated in 384 well plates were treated with test compounds or vehicle controls for 2 days. Firefly luciferase signal was measured and normalized to the renilla luciferase signal. Results from duplicate wells (circles and triangles) are expressed relative to normalized controls treated with DMSO.
A reporter cell line expressed in HEK293 cells in which Atoh1 enhancer elements flanked a minimal promoter driving firefly luciferase expression was created. Dose response data was generated in the reporter cell line. Atoh1 reporter cells plated in […] plates were treated with test compounds or vehicle controls for 2 days. Firefly luciferase signal was measured and normalized to the renilla luciferase signal.
For high-throughput screening, HEK293 cells were transduced with a lentiviral vector containing a concatamer of Atoh1 enhancer A and B elements, the Promega minP minimal promoter, firefly luciferase coding sequence and hygromycin selectable marker. After selection, the cells were transduced with a second lentiviral vector containing the EF1α constitutive promoter, Renilla luciferase and puromycin selectable marker. A clonal derivative expressing both transgenes was expanded and banked for screening.
A screening assay was done by plating 8000 cells/well in 384 well plates, and treating for 48 hours with 1 and 10 μM test compound in DMSO, vehicle control, or the GSK-3B inhibitor, BIO, as a positive control. Firefly and Renilla luciferase were measured sequentially using Dual-Glo (Promega) with an Envision multi-label plate reader (Perkin Elmer). Data were analyzed after normalizing firefly luciferase signals to Renilla luciferase signals. A primary screen of 50,000 diverse compounds identified 140 hits. […] 10 of these 41 hits were selected for further analysis
To confirm activity in the 10 selected hits, the test compounds were reassayed at 3.3×10^−9, 1×10^−8, 3.3×10^−8, 1×10^−7, 3.3×10^−7, 1×10^−6, 3.3×10^−6 and 1×10^−5 molar concentrations. […] Results from duplicate wells (circles and triangles) are expressed relative to normalized controls treated with DMSO.

In data set [2] the test system is Atoh1 expression in P5 rat cochlear explants. Nature of the data set: Cochlear explant assay, Atoh1 expression by qRT-PCR after tobramycin pretreatment. To be noted: 1 mM tobramycin pretreatment, then compound vs DMSO. The procedure: FIG. 3. Postnatal day 5 rat cochleae were cultured for 2 days with 1 mM tobramycin and then 3 days with test compound or vehicle. Relative Atoh1 expression was measured by qRT-PCR. Results are expressed as average±S.D. for >7 individual cochleae per treatment group. * p<0.05, student's t-test.
The ten selected hits of Example 43 were assayed for the ability to induce Atoh1 expression in primary cultured cochlear explants from the neonatal rat. Postnatal day 5 (P5) rat cochlear explants were cultured with the ototoxic aminoglycoside antibiotic, tobramycin (1 mM), for 3 days prior to drug testing, as an in vitro model of drug-induced hearing loss. […] See, e.g., Ruedi, et al., Larynoscope 62:333-357 (1952). After the 3 day tobramycin pretreatment, the cochlear explants were cultured with the compounds of Example 43 or DMSO vehicle for an additional 2 days. Atoh1 expression levels, measured by qRT-PCR and normalized to ribosomal 18S expression, after hit compound treatments are shown in FIG. 3.

The test system of data set [3] is Atoh1-GFP mouse cochlear explants. As to the kind of experiment: Atoh1-GFP reporter mouse cochlear explants, confocal imaging and immunostaining. Particulars: 40 μM, 3 days. The protocol: FIG. 4. Confocal images of E13 and P0 Atoh1-GFP mouse cochlear explants cultured for 3 days in 40 μM Compound 4 or DMSO and immunostained with antibodies against the supporting cell marker Sox2 (red), the hair cell marker MyosinVIIa (Myo7a, blue) and an anti-GFP antibody (green). […] Scale bars: A and B (50 μm); C and E (500 μm); D and F (25 μm).
To identify which cells expressed Atoh1 after hit compound treatment, we utilized cochlear explants from embryonic and postnatal Atoh1-GFP reporter mice. See, e.g., Lumpkin, et al., Gene Expression Patterns 3:389-395 (2003). Both embryonic and neonatal cochleae were used in order to identify if there was a temporal window in which tissue was more responsive to drug treatment.

Another data set has as its system Atoh1 reporter cell line. As to the kind of experiment: Transcriptional profiling of Atoh1 reporter cell line by gene profiling microarray. Particulars: 5 μM, 2 days, vs DMSO. The procedure:
FIG. 5. An Atoh1 reporter cell line was treated with 5 μM Compound 4 or DMSO for 2 days. Gene expression was measured with a gene profiling microarray and plotted.
In an attempt to identify the signaling pathway by which Compound 4 induces Atoh1 expression, transcriptional profiling of the Atoh1 reporter cell line was compared after treatment with Compound 4 or DMSO control. The Atoh1 reporter cell line was treated with 5 μM or Compound 4 or DMSO for 2 days. […] An upregulation of endogenous Atoh1 with Compound 4 treatment in the reporter line was not observed, presumably because the overexpressed reporter sequence outcompeted the native Atoh1 regulatory domain. […] See, e.g., Martinez, et al., Toxicol. Sci. 82:429-435, (2004); Ito, et al., J. Immunotoxicol. 3(1):21-30 (2006); and Sun, et al., Nucleic Acids Res. 32(15):4512-4523 (2004). […] See, e.g., Qian, et al., J. Immunol. 166:2553-2561 (2001) and Kimura, et al., Biochem. Biophys. Res. Comm. 264:86-92 (1999).

The mark [4] stands for this setting: P0 Atoh1-GFP mouse cochlear explants.

Turning to `Cc1c(C(=O)Nc2nccs2)oc2ccccc12` [Compound 4], the EC50 in data set [1] was found to be 1300 nM. For the same compound, the “Atoh1 expression by qRT-PCR normalized to ribosomal 18S” value in data set [2] was “largest stimulation of Atoh1 expression”. Besides, in data set [3] (Atoh1-GFP mouse cochlear explants), the “averaged total length of the organ of Corti vs DMSO” value is reported as “no difference”. Besides, the “GFP+ hair cells in E13 explants vs DMSO control” value in data set [3] (E13 Atoh1-GFP mouse cochlear explants) is reported as “greater number of GFP-positive hair cells; also recorded: increase in GFP+ hair cells”. In addition, in data set [3] (setting [4]), the “GFP+ hair cells with Sox2+ nuclei in P0 explants” value is recorded as “numerous ectopic GFP+ hair cells with weak nuclear Sox2 expression; also recorded: numerous GFP+/MyosinVIIa+ cells were observed to have Sox2+ nuclei” and the “GFP-positive hair cell domain in P0 explants vs DMSO control” value is recorded as “expansion in the GFP+ hair cell domain; also recorded: expansion of the GFP-positive hair cell domain”. Further, in the data set with Atoh1 reporter cell line, the “upregulation of annotated genes (EGR1, SCIN, CYP1A1, CYP1B1, TACT, MAFF)” value was “greater than 3 fold” and the “upregulation of endogenous Atoh1” value is recorded as “not observed”.
